Positions count from the first letter of the chain named.
What was measured:
mutant GnRHR = molecular target: T1, mutant GnRHR (Homo sapiens, UniProt P30968, E90K); experiment: Pharmacological rescue of GnRHR mutants (Example 1), IP production and agonist binding; assay type: cell-based
T1 construct: expressed in transfected cells; host or cells: COS-7
T1 sequence (P30968 1-328 E90K): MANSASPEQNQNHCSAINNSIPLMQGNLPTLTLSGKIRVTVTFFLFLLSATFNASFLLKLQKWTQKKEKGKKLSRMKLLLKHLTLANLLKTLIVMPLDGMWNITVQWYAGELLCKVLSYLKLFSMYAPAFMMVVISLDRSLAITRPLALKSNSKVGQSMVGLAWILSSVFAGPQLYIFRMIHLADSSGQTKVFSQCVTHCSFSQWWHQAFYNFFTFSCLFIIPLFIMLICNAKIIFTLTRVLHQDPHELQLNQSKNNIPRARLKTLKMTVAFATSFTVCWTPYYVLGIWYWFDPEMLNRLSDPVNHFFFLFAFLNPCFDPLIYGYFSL
Procedure: WT and mutant hGnRHR were separately transiently expressed in COS-7 cells using standard molecular biology methods (Leaños-Miranda et al., J. Clin. Endo. Metab., 87:4825-8, 2002). Briefly, cells were maintained in growth medium (DMEM) containing 10% fetal calf serum (FCS; Life Technologies, Grand Island, N.Y.) and 20 μg/ml gentamicin (Gemini Bioproducts, Calabasas, Calif.) in a 5% CO2 humidified atmosphere at 37° C. One hundred thousand cells/well were seeded in 24-well plates (Costar, Cambridge, Mass.). Twenty-four hours after plating, the cells were transfected with 0.05 μg DNA per well (for IP production assay) or 0.1 μg DNA per well (for saturation binding studies) using 2 μl lipofectamine in 0.25 ml OPTI-MEM containing 1% DMSO (vehicle) or 1 μg/ml of each indole, quinoline or erythromycin macrolide prepared in vehicle.
After five hours, 0.25 ml of DMEM containing 20% FCS with or without indole, quinoline or erythromycin macrolide (as indicated) was added to each well. The cells were incubated for an additional 18 hours at 37° C., then washed and fresh growth medium with (1 μg/ml) or without the therapeutic agent was added to the cells for another 28 hours at 37° C. […]
The quantification of IP production and saturation binding were determined as described previously (Huckle and Conn, Methods Enzymol. 141:149-55, 1987).
To determine the saturation binding, the cells were washed twice with warm DMEM/BSA prior to incubating with the GnRH agonist [^125I]-buserelin [D-tert-butyl-Ser^6, des-Gly^10, Pro^9, ethylamide-GnRH; specific activity, 700 μCi/μg; 230,000 cpm/0.5 ml, pH 7.4; Hoeschst-Roussel Pharmaceuticals (Somerville, N.J.); also see Marian et al., Mol. Pharmacol. 19:399-405, 1981] and nonspecific binding was measured in the presence of 1 μM GnRH (NIDDK National Hormone and Peptide Program, Bethesda, Md.). […] The sample was transferred to a glass tube and counted in a gamma counter (Packard Instruments; Downers Grove, Ill.). Specific binding was calculated by subtracting non-specific binding (binding measured in the presence of 1 μM GnRH) from total binding (no GnRH). […]

WT hGnRHR = molecular target: T2, WT hGnRHR (Homo sapiens, UniProt P30968); experiment: IP production in COS-7 cells transfected with WT hGnRHR, Buserelin dose response (FIG. 13 inset); assay type: cell-based; conditions: COS-7 cells transfected with 100 ng of WT hGnRHR
T2 construct: expressed in transfected cells; host or cells: COS-7
T2 sequence (P30968 1-328): T1 sequence (P30968 1-328 E90K) with K90E
Procedure: For tranfections, 5×10^4 COS-7 cells were plated in 0.25 ml growth medium in 48 well Costar cell culture plates. Twenty-four hours after plating, the cells were washed once with 0.5 ml OPTI-MEM (Promega, Madison, Wis.) then transfected with 100 ng total cDNA (pcDNA3.1+without insert “empty vector” was included to bring the total cDNA to 100 ng/well, unless otherwise indicated) and 1 μl lipofectamine in 0.125 ml OPTI-MEM (room temperature), according to manufacture's instructions. For co-transfection, the cells were co-transfected with WT GnRHR (5 ng/well) and empty vector or mutant GnRHR (95 ng/well) or other GPCR cDNAs, as indicated, using 1 μl Lipofectamine (Promega, Madison, Wis.) in 0.125 ml Opti-MEM. Constant amounts of Opti-MEM were achieved by the addition of sterile milli-Q H2O to the cDNA mixtures. […]
The IP production was measured 27 hours after transfection, as described in Example 1, except that following the preloading, cells were treated for 2 hours in 0.25 ml of Buserelin (100 nM), and at the end of the incubation period, the cells were frozen and thawed in the presence of 0.5 ml of 0.1 M formic acid. Data (n≧3) was analyzed with one-way ANOVA and then paired Student's t-test (SigmaStat 3.0, Jandel Scientific Software, Chicago, Ill.; P<0.05 was considered significant). […]

| SMILES | restoration of function to mutant GnRHR (mutant GnRHR) | Buserelin concentration giving maximal response on IP production (WT hGnRHR) |
| --- | --- | --- |
| CC[C@H]1OC(=O)[C@H](C)[C@@H](O[C@H]2C[C@@](C)(OC)[C@@H](O)[C@H](C)O2)[C@H](C)[C@@H](O[C@@H]2O[C@H](C)C[C@H](N(C)C)[C@H]2O)[C@](C)(O)C[C@@H](C)C(=O)[C@H](C)[C@@H](O)[C@]1(C)O [A-7662.0, Erythromycin A] | known not to bind to or restore function to mutant protein | – |
| CCNC(=O)[C@@H]1CCCN1C(=O)[C@H](CCCNC(=N)N)NC(=O)[C@H](CC(C)C)NC(=O)[C@@H](COC(C)(C)C)NC(=O)[C@H](Cc1ccc(O)cc1)NC(=O)[C@H](CO)NC(=O)[C@H](Cc1c[nH]c2ccccc12)NC(=O)[C@H](Cc1cnc[nH]1)NC(=O)[C@@H]1CCC(=O)N1 [Buserelin, D-tert-butyl-Ser^6, des-Gly^10, Pro^9, ethylamide-GnRH] | – | 10^−7 M |
| Cc1cc(C)cc(-c2[nH]c3ccc(C(C)(C)C(=O)N4CCN(C)CC4)cc3c2[C@H](C)CNCCc2ccc(C(=O)O)cc2)c1.O=C(O)C(F)(F)F [IN31b, (2S)-N-[2-(4-carboxyphenyl)ethyl]-2-[5-[1,1-dimethyl-2-(4-methylpiperazin-1-yl)-2-oxoethyl]-2-(3,5-dimethylphenyl)-1H-indol-3-yl]propan-1-aminium trifluoroacetate] | known not to bind to or restore function to mutant protein | – |
| COc1cc2c(cc1OC)CN(C(=O)c1cc3c(OCC[C@@H]4CCCCN4)c(-c4cc(C)cc(C)c4)c(=O)[nH]c3cc1Cl)CC2.O=C(O)C(F)(F)F [Q08, (2S)-2-(2-{[7-chloro-6-[(6,7-dimethoxy-3,4-dihydroisoquinolin-2(1H)-yl)carbonyl]-3-(3,5-dimethylphenyl)-2-oxo-1,2-dihydroquinolin-4-yl]oxy}ethyl)piperidinium trifluoroacetate] | known not to bind to or restore function to mutant protein | – |

From patent US7842470B2, “Method for pharmacoperones correction of GnRHR mutant protein misfolding” (Oregon Health & Science University, priority 2001, dated 2010)
